Measurements from patent publication US9233088B2, “Use of glutamate, glutamate derivatives or metabolites, glutamate analogues or mixtures thereof for the manufacture of a composition for the treatment of osteoporosis” (Protista Biotechnology AB, priority 2001, dated 2016).
Residues, ends and D or L forms follow the SMILES beside them.

Experiments:
ovariectomized rats = assay: Femur bone mineral density in intact, shame operated and ovariectomized osteopenic female rats given AKG in drinking water; type: in vivo, Wistar rats; conditions: all three groups (INT, SHO, OVX), 60 days drinking water with AKG, p<0.01 in all groups
Experimental: 60 female Wistar rats at the age of 2 months and with an initial bodyweight of 200 g are used.
The animals are maintained in controlled conditions of 12/12 h dark/light ratio at 22° C.±2 and at 55%±2 humidity with free access to food and water.
The rats are divided into three groups (n=20), where Group 1 is shame operated, Group 2 is ovariectomized and Group 3 is intact, i.e. not operated at all.
On the day of surgery, all rats are anaesthetised with an intramuscular injection of ketamine and xylaline.
20 of the rats are shame-operated (SHO), where the ovaries are exteriorised and replaced intact.
The second group of ovariectomized rats (OVX) are submitted to ovariectomy from a dorsal approach.
Six months after ovariectomy, the animals from group 1 and 2, are divided into two additional sub-groups; one placebo and one experimental group.
After 60 days with placebo and experimental drinking water the rats are anaesthetised in CO2 and femur isolated for further analysis of bone mineral density.

piglets [1] = assay: Three point bending test (Instron 4302) of bones from piglets given AKG or Ala-Gln orally; type: in vivo, pig; conditions: for Bone ultimate strength (Wf) femur: piglets 35 days of postnatal life, 0.4 g/kg b.w. oral once a day
Experimental: (§1) All piglets suckled sow milk before weaning. After weaning at the age of 28 days piglets were fed ad libitum with a standard mixture Premix prestarter (PP) (Food plant-Motycz, Poland) and free access to water was allowed. Piglets were allotted to three experimental trials:
(§2) 2—Second group, receiving 0.4 g/kg/b.w. of L-alanyl-L-glutamine (ala-gln), (2 ml solution/kg b.w.)
(§3) Different parameters are used for defining and measuring the bone quality according to the invention. Used parameters are known to the skilled man in the art and are explained below: • 1) Maximum elastic strength measures the load, in Newtons (N), at […]. • 2) Ultimate strength measures the load, in Newtons (N), at […] of the bone. • 3) Cross-sectional area is the measure of the bone area on the cross section, in mm^2. • 4) Second moment of inertia is the measurement of the efficiency of the cross-sectional geometry to resist bending force, expressed in mm^4. • 5) Mean relative wall thickness is the wall thickness of the bone to its lumen. • 6) Bone mineral density (BMD) expresses the mineral content of the bone expressed in g/cm^2.
(§4) At the age of 35 days, piglets were sacrificed, eviscerated and bones were sampled.
Using Instron 4302 apparatus and applying three point bending test as presented in FIG. 1, the following properties of the bones were determined from curves showing the relation between load and deflection:
1) maximum elastic strength, Wy
4) maximum elastic deflection.

piglets [2] = assay: Architectural and geometric properties of bones from piglets given AKG or Ala-Gln orally; type: in vivo, pig; conditions: piglets 35 days, 0.4 g/kg b.w. oral, mean ± SEM
Experimental: as §1, §2, §3, §4
Architectural and geometric properties of bone were estimated based on measurements of horizontal and vertical cross section as well as interior and exterior diameter of the bone.
Mean relative wall thickness (MRWT) expresses the ratio of wall to lumen measures and serves as an indicator in the process of architectural adaptation of bone to physiological stress during the growth of the body. When the lumen increases with unchanged wall thickness the MRWT decreases but bone resistance to strain increases.

turkeys = assay: Ulna bone mineral density (DEXA) after fracture and neurectomy in the turkey; type: in vivo; conditions: group A, 0.8 g/kg oral
Source text: Turkeys are kept in common cages, 10 turkeys/cage. The turkeys have free access to water and are fed ad libitum.

piglets [3] = assay: Growth (bodyweight) and bone mineralisation during postnatal life of the pig; type: in vivo
Experimental: as §1, §2, §4

postmenopausal women = conditions: Gynecol. Endocrinol. 7:201-205 (1993); cited from earlier work
[4] = ribs 4-9, piglets 35 days, 0.4 g/kg b.w. oral, mean ± SEM

Molecule | BMD difference between the AKG treated rats and the placebo treated rats (ovariectomized rats) | Yielding stress of the 5th rib (piglets [1]; 5th rib, 35-days-old piglets, versus control) | Bone ultimate strength (Wf) femur (piglets [1]; mean ± SEM) [N] | Cross-sectional area (A) femur (piglets [2]; femur) | Cross-sectional area (A) humerus (piglets [2]) | BMD of the ulna bone, difference compared to the saline treated turkeys (turkeys; left wing control (intact), p<0.01) [%] | BMD of the ulna bone, AKG effect compared to the saline treated turkeys (turkeys; right wing experimental (neurectomized, fracture of the ulnae), p<0.055) | Bone maximum elastic strength (Wy) (ribs 4-9) (piglets [1]; [4]) [N] | Moment of ultimate strength ribs (4-9) (piglets [1]; [4]) | Ultimate strength (Wf) (ribs 4-9) (piglets [1]; [4]) [N] | Second moment of inertia (Ix) femur (piglets [2]; femur) | Cross sectional area (A) (ribs 4-9) (piglets [2]; ribs 4-9) [mm^2] | Second moment of inertia (ribs 4-9) (piglets [2]; ribs 4-9) [mm^4] | Bodyweight difference, day 14 (piglets [3]; day 14, control group always less than Ala-Gln group) | Bodyweight difference, day 21 (piglets [3]; day 21, control group always less than Ala-Gln group) | Bodyweight difference, day 35 (piglets [3]; day 35, control group always less than Ala-Gln group) | Bodyweight difference, day three (piglets [3]; day three of postnatal life, control group always less than Ala-Gln group) | Increase in bone mineral density (postmenopausal women) [%]
α-keto-glutaric sodium salt [AKG] | about 10% | significant increase | 1123.0 ± 75.09 | 64.7 ± 3.82 * mm^2 | 52.7 ± 4.1 * mm^2 | 25 | about 11% |  |  |  |  |  |  |  |  |  |  | 
C[C@H](N)C(=O)N[C@@H](CCC(N)=O)C(=O)O [Ala-Gln, L-alanyl-L-glutamine] (H-Ala-Gln-OH) |  |  | 1075.0 ± 28.16 | 60.1 ± 2.59 * mm^2 | 52.2 ± 2.48 * mm^2 |  |  | 442.9 ± 15.32 | 625.24 ± 1.5 ∇ N | 450.2 ± 22.1 | 492.8 ± 12.81 ∇ mm^4 | 9.62 ± 0.33 | 10.88 ± 0.55 | about 690 g | about 419 g | about 313 g | about 96 g | 
L-glutamine calcium monofluorophospate |  |  |  |  |  |  |  |  |  |  |  |  |  |  |  |  |  | 4.25
